≈ marks a conversion by molar mass, not a printed value. Bounds are passed on as bounds.

For the series the following is noted: buffer; pH 7.4; 200.0 µM.
Take `COc1cc(OC)cc(C(=O)NC(=S)N2CCCCCC2)c1`: the kinetic solubility (in general, solubility judged after dilution from a stock solution rather than from solid) turned out to be 43.6 µg/mL (≈ 135 µM). Under `CC[C@H](C)[C@H](NC(=O)c1ccc(Cl)cc1)C(=O)OCC(=O)c1c(N)n(C)c(=O)n(C)c1=O` stands 27.7 µg/mL (≈ 59.6 µM); under `CC(=O)c1c(C)[nH]c(C(=O)Nc2cccc(C)n2)c1C`, 21.4 µg/mL (≈ 78.9 µM); under `CC1(C)CC(=O)N(c2cc(Cl)ccc2Cl)C(=O)C1`, 14.7 µg/mL (≈ 51.4 µM). As to `Cc1ccc(CNC(=O)CN2C(C)CCCC2C)cc1` (configuration not stated), the solubility (kinetic) was 28.9 µg/mL (≈ 105 µM). This solubility kinetic lies about 2-fold higher than the previous one.

Molecule `O=c1[nH]c(O)c(C=Nc2cccc(F)c2)c(=O)[nH]1` displayed a solubility (kinetic) of 4.8 µg/mL (≈ 19.3 µM). Regarding `COc1ccc(CC(=O)OCC(=O)N2CCCC(C)C2)cc1` (configuration not stated), the kinetic solubility is greater than 45.8 µg/mL. Regarding `COc1ccccc1CN(C)C(=O)COC(=O)c1ccc(Cl)nc1`, the solubility (kinetic) was greater than 52.3 µg/mL. Under `CCOc1ccccc1N1CCN(C(=O)CC(C)(C)C)CC1` stands 45.1 µg/mL (≈ 148 µM). For `Cc1ccc(C(=O)OCC(=O)NCc2ccco2)cc1C`, the kinetic solubility was 12.8 µg/mL (≈ 44.6 µM). Under `O=C1CCc2cc(S(=O)(=O)Nc3ccccc3F)ccc2N1` stands greater than 48.1 µg/mL.

`Cc1oncc1C(=O)Nc1cccc(C#N)c1` gave a kinetic solubility greater than 34.1 µg/mL. Turning to `Cc1c(C=O)c2ccccc2n1Cc1ccccc1F`, the kinetic solubility was 20.4 µg/mL (≈ 76.3 µM). `O=c1oc2ccccc2c(Nc2ccc(Cl)cc2)c1[N+](=O)[O-]` registered a solubility (kinetic) of 0.9 µg/mL (≈ 2.84 µM). The value for `C=CCOc1ccc2c(c1)c(=O)cc(C(=O)O)n2CC` was 39.7 µg/mL (≈ 145 µM). The molecule `COc1ccccc1Cn1c(=S)[nH]c2ccccc2c1=O` came in with a kinetic solubility of 0.5 µg/mL (≈ 1.68 µM). Regarding `O=C(N/C(=C/c1cccnc1)C(=O)N1CCOCC1)c1ccccc1F`, the kinetic solubility was greater than 53.3 µg/mL. `COc1ccc(-c2csc(NC(=O)c3ccoc3C)n2)cc1` came in with a kinetic solubility of less than 0.3 µg/mL. On to `CC(=O)Nc1ccc(-c2csc(NCc3ccccc3)n2)cc1`, for which the solubility (kinetic) is 33.9 µg/mL (≈ 105 µM). As for `Nc1nc(OCc2ccccc2)c2[nH]cnc2n1`, the solubility (kinetic) stood at 35.9 µg/mL (≈ 149 µM). Molecule `NC(=NC1CCCCC1)NS(=O)(=O)c1ccccc1` registered a solubility (kinetic) greater than 42.2 µg/mL.

In turn, `NC(=O)c1ccccc1NC(=O)CSC1=NCCS1` returned a kinetic solubility greater than 44.3 µg/mL. Consider `CCN=C1SC(C(=O)Nc2cccc(Cl)c2)CC(=O)N1CC` (configuration not stated), for which the solubility (kinetic) was found to be 2.6 µg/mL (≈ 7.65 µM). `CCc1ccc(NS(=O)(=O)c2c(C)noc2C)cc1`: the kinetic solubility was greater than 42.1 µg/mL. Molecule `Cc1ccc(N2C(=O)CC(Cc3ccc(Cl)cc3)C2=O)cc1` (configuration not stated) came in with a kinetic solubility of 7.1 µg/mL (≈ 22.6 µM). For `NC(=O)c1ccccc1OCc1nc2ccccc2s1`, the solubility (kinetic) came out at 19.5 µg/mL (≈ 68.6 µM). With `COc1ccccc1C(=O)c1c(C)c(CCC#N)n2ccccc12`, the solubility (kinetic) is 40.6 µg/mL (≈ 128 µM).

For `Cl.c1ccc(-c2ccc(OCCN3CCOCC3)cc2)cc1`, the solubility (kinetic) was determined as 29.8 µg/mL.

In turn, `Cc1ccc2c(c1)C1C[N+](C)(CC(=O)c3ccc(Cl)cc3Cl)CCC1N2C(=O)c1ccc(F)cc1.[Cl-]` (configuration not stated) had a solubility (kinetic) greater than 82.2 µg/mL. The molecule `CCN(CC)S(=O)(=O)c1ccc(OC(C)C)c(N)c1` returned a solubility (kinetic) greater than 43 µg/mL.

Consider `COC(=O)c1c(C)[nH]c(C(=O)OCc2csc(CC(=O)Nc3ccccc3C)n2)c1C`, for which the kinetic solubility worked out at 7.4 µg/mL (≈ 16.8 µM). Under `Cc1cccc(NC(=O)C(=O)C2C(=O)Nc3ccccc32)c1` (configuration not stated) stands greater than 44.1 µg/mL; under `Cc1ccc(S(=O)(=O)NC(C)C(=O)Nc2cccc([N+](=O)[O-])c2)cc1` (configuration not stated), 8.9 µg/mL (≈ 24.5 µM); under `CCCN(CC(=O)Nc1cc(Cl)ccc1Cl)C(=O)c1ccccn1`, greater than 54.9 µg/mL. The molecule `CCCCNC(=S)N1CCN(c2ccc(C(C)=O)cc2)CC1` registered a kinetic solubility of 8 µg/mL (≈ 25 µM).

`CC(=O)c1c[nH]c(C(=O)NCc2ccccc2Cl)c1` had a solubility (kinetic) of 3.5 µg/mL (≈ 12.6 µM). `Cc1cccc(NC(=S)NC(=O)c2ccco2)c1C`: the solubility (kinetic) turned out to be 36.7 µg/mL (≈ 134 µM). Regarding `CC(=O)c1cc2c(cc1NC(=O)Cc1c(C)noc1C)OCO2`, the kinetic solubility was greater than 47.4 µg/mL. In the case of `O=C(Nc1cccc(S(=O)(=O)N2CCCCC2)c1)C1COc2ccccc2O1` (configuration not stated), the solubility (kinetic) came out at 6.6 µg/mL (≈ 16.4 µM).

For the molecule `COc1ccc(C(OC(=O)c2ccco2)C(=O)NC2CCCC2)cc1` (configuration not stated), the kinetic solubility was 3.4 µg/mL (≈ 9.9 µM). For the molecule `Cc1nccc(-c2cccc(NC(=O)Nc3ccc(Cl)cc3)c2)n1`, the solubility (kinetic) is 0.6 µg/mL (≈ 1.77 µM). Compared with the last molecule, the solubility kinetic is about 5.7-fold lower. `COc1cc(C(=O)NCCOc2ccccc2C)cc(OC)c1OC` displayed a solubility (kinetic) of 48.8 µg/mL (≈ 141 µM). This solubility kinetic is about 81-fold higher than that of the molecule before. Take `COc1cc2c(cc1Cl)C(=O)C(F)(c1ccccc1)C(=O)N2` (configuration not stated): the solubility (kinetic) was 0.8 µg/mL (≈ 2.5 µM).

In turn, `O=C(Nc1ccccc1)c1ccc(OC(=O)c2ccccc2)cc1` came in with a kinetic solubility of less than 0.7 µg/mL. The molecule `Cl.O=C(O)C1=CCNCC1` displayed a solubility (kinetic) greater than 24.5 µg/mL. Take `COC(=O)c1ccc(COc2ccc(C#N)cc2)o1`: the kinetic solubility worked out at 7 µg/mL (≈ 27.2 µM). Under `CN(C)CCNC(=O)C(=O)C1C(=O)Nc2ccccc21` (configuration not stated) stands greater than 41.3 µg/mL; under `CN(C)c1ccc(N=Cc2cccn2C)cc1`, greater than 34.1 µg/mL; under `Fc1ccc(C2Nc3cccc4cccc(c34)N2)cc1`, 3.2 µg/mL (≈ 12.1 µM). In turn, `Cc1ccccc1C(=O)NC(=S)NCc1cccnc1` returned a solubility (kinetic) greater than 42.8 µg/mL. `O=c1cc(Cl)[nH]c(=O)n1Cc1ccccc1` gave a solubility (kinetic) greater than 35.5 µg/mL. In turn, `CC1(C)CC(=O)C(N=Nc2cccnc2)=C(O)C1` came in with a solubility (kinetic) greater than 36.8 µg/mL.

For the origin of these results see PubChem BioAssay AID1996.
